Measurements reported in patent US20130324606A1, “Ester Derivatives of Bimatoprost Compositions and Methods” (ALLERGAN, INC., priority 2011, published 2013).

Key:
[1] = Dermal tolerability in rats; format: in vivo; settings: female rats; for change in food consumption and body weight gain (in words): 3 mg/kg/day daily for 8 days; for Body Weight Gain (g) Mean ± SD / Food Consumption (g) Mean ± SD: dermal 3 mg/kg/day daily for 8 days, Formulation A
Procedure: Female rats were administered either vehicle or one of Cmpds IVa, IIIb, or IVb daily for 8 days. The administered dose was 3 mg/kg/day, at a concentration of 3 mg/mL. Observed data were body weight, viability, food consumption, and dermal observation (skin reaction grading), as known in the art. The vehicle was Formulation A. See Table 1 above.

[2] = tested on: mouse skin; test: Pathology assessment of mouse hair regrowth model; format: in vivo, mice; settings: histology, 0.03% active, vehicle control still in growth phase
Source text: Histological samples from test subjects employed in the studies described in Example 12 were obtained for pathology assessment.

[3] = Partitioning in artificial sebum; format: physicochemical
Procedure: Compounds bimatoprost, Cmpd IVa, and Cmpd IIIb were added to aqueous solution (1 mL, 2-20 ug/mL), with and without 1-20 mg artificial sebum. Samples were shaken for 16 hr at 37° C. Samples were then centrifuged (8000 RPM) for 15 min at room temperature, prior to collection of the aqueous solution. Samples were analyzed for concentration of compound without artificial sebum (i.e., Co) and with artificial sebum (i.e., Ci) by mass spectroscopy. Artificial sebum and water partition coefficient (Ksebum) was expressed as the concentration of drug in 1 g of artificial sebum divided by the concentration of drug in 1 g of aqueous solution, and was calculated as Ksebum=(Co−Ci)Waqueous/(Ci×Wsebum) (Eqn. 1), where W represents weight.
Artificial sebum was prepared as follows: 15% (w/w) squalene, 15% spermaceti, 10% coconut oil, 1.5% oleic acid, 5% palmitic acid, 2.4% cholesterol oleate, 10% paraffin wax, 10% olive oil, 25% cottonseed oil, 5% palmitoleic acid, 1.2% cholesterol. The melting point of the semi-liquid was 37° C.

[4] = In vitro human skin penetration (Franz diffusion chamber); format: in vitro ADME; settings: for skin penetration (cumulative amount in receptor solution) relative to bimatoprost / penetration flux relative to bimatoprost / Percentage Dose Applied, Receptor Chamber Solution, Prodrug / Percentage Dose Applied, Upper ⅓ Dermis, Prodrug: 0.03% in Formulation A; for skin penetration (cumulative amount in receptor solution) relative to bimatoprost: FIG. 13A; for penetration flux relative to bimatoprost: FIG. 13B; for Percentage Dose Applied, Receptor Chamber Solution, Prodrug: Franz chamber; for Percentage Dose Applied, Receptor Chamber Solution, Prodrug / Percentage Dose Applied, Upper ⅓ Dermis, Prodrug: dosed compound; for Percentage Dose Applied, Upper ⅓ Dermis, Prodrug: dermis at 48 hrs; for conversion to bimatoprost in the SC/Epi/Dermis layers: FIG. 15A; for amount of active agent in the upper third of the dermis relative to bimatoprost: FIG. 15B
Source text: Test material: Dermatomed ex vivo human cadaver posterior trunk skin on 1.0 cm^2 Franz diffusion chamber as known in the art. Test size: 3 skin donors (obtained from New York Firefighters Skin Bank), 3 replicates per donor per formulation. Test formulations: 0.03% active agent (Cmpd IVa, Cmpd IIIb, Cmpd IVb) in Formulation A; control formulation: bimatoprost at 0.03% in Formulation A. Dosing regimen: receptor fluid at 2, 4, 24, and 48 hrs; SC/epidermis and dermis at 48 hrs. Sample analysis: LC/MS-MS to detect bimatoprost and Cmpds IVa, IIIb and IVb.

[5] = Pharmacokinetic assessment of mouse hair regrowth model; format: in vivo; settings: mice, 0.03% dermal daily ~60 uL, all measured time points, LC/MS-MS
Procedure: Female C57BL/6J mice (n=2) were assayed per time point per treatment group. Treatment groups: (1) vehicle; (2) 0.03% Cmpd IVa; (3) 0.03% Cmpd IIIb; (4) 0.03% Cmpd IVb; (5) 0.03% bimatoprost. Treatment dosing: dermal daily application of ˜60 uL test compound solution. Blood and skin pharmacokinetic time points were obtained at day 1 (1, 4, 8 and 24-hrs post-dose); day 2 (24-hrs post-dose); day 14 (24-hrs post-dose); and day 42 (28 days post day 14 dose). Bioanalysis employed LC/MS-MS.

[6] = Formulation and stability studies; format: physicochemical; settings: variations of Formulation A, 0.03% active, pH 4, 5, 6 and 7; 25, 40 and 60° C.; zero time and 80-days
Procedure: Stability over time of compounds disclosed herein was determined in formulation as a function of temperature and pH. Variations of Formulation A described herein were employed wherein the target concentration of active agent was 0.03%, and the pH was varied at pH 4, 5, 6 and 7. Temperatures of 25° C., 40° C. and 60° C. were maintained during the experiment. Samples were evaluated at zero time and 80-days.
Cmpds IVa, IIIb, and IVb for evaluated for stability.
FIGS. 1A-1B, 2A-2B, and 3A-3B depict histograms of relative concentrations of test compounds (arbitrary scale) at zero time or 80-days. FIG. 1A depicts a histogram of the stability profile of Cmpd IVa as a function of pH and temperature. FIG. 1B depicts a histogram of the formation of bimatoprost as a function of pH and temperature after 80-days for Cmpd IVa. FIG. 2A depicts a histogram of the stability profile of Cmpd IVb as a function of pH and temperature. FIG. 2B depicts a histogram of the formation of bimatoprost as a function of pH and temperature after 80-days for Cmpd IVb. FIG. 3A depicts a histogram of the stability profile of Cmpd IIIb as a function of pH and temperature. FIG. 3B depicts a histogram of the formation of bimatoprost as a function of pH and temperature after 80-days for Cmpd IIIb.

[7] = tested on: reconstructed human epidermis (RHE); test: In vitro dermal irritation screening in reconstructed human epidermis; format: cell-based; settings: concentration 0.03%, Formulation A vehicle
Procedure: In vitro irritation screening assays were conducted for compounds described herein. Test system was the reconstructed human epidermis (RHE), as known in the art. Single dosing was employed, and endpoints were evaluated as a function of time up to 24-hrs. Endpoints were tissue viability and IL-1α release.
Test compounds included Cmpds IVa (0.03%), IIIb (0.03%), IVb (0.03%), bimatoprost (0.03%), minoxidil (5%, foam), and minoxidil (5%, solution). Administration of Cmpds IVa, IIIb, IVb and bimatoprost employed the vehicle of Formulation A. See Table 1 above. Administration of minoxidil employed minoxidil vehicle with formulation 20% H2O, 50% propylene glycol, and 30% ethanol.

[8] = In vitro human skin penetration (Franz diffusion chamber); format: in vitro ADME; settings: FIGS. 14A-14C, 6, 24, 48 hr
[9] = tested on: C57Black/6J mice; test: Piliation (hair regrowth) studies in mice; format: in vivo; settings: for pharmacological efficacy relative to bimatoprost: mouse hair regrowth, vehicle Formulation A
Procedure: C57Black/6J, 7-week old female mice (n=10) were employed in piliation studies. Dorsal hair was shaved (area ˜2 cm×4 cm). Dosing of active agent was once per day (QD) by topical administration for 14 days. Observations were conducted for 42-days to determine onset of new hair growth and day of hair growth completion. Compounds were formulated as either a) 50% propylene glycol, 30% ethanol, 20% water, or b) the formulation of Formulation A described above. The experiments reported for FIGS. 4A-4B, 5A-5B, 6A-6B, 8A-8B, and 9A-9B were conducted using a vehicle with formulation of 50% propylene glycol, 30% ethanol, 20% water. The experiments reported for FIGS. 7A-7B were conducted using a vehicle of Formulation A described above.
For each of FIGS. 4A, 5A, 6A, 7A, 8A and 9A, the histograms depict the day of onset of hair growth. For each of FIGS. 4B, 5B, 6B, 7B, 8B and 9B, the histograms depict the day achieving full hair growth.

[10] = microAmes mutagenesis screen; format: cell-based; settings: with or without metabolic activation
Source text: Cmpds IVa, IIIb, and IVb were subjected to the microAmes screen, as known in the art.

[11] = tested on: human hair dermal papilla cells, HHDPC; test: Cellular dielectric spectroscopy (CDS) in dermal papilla cells; format: cell-based; settings: for EC50: cell impedance, tested range 10^−4 to 10^−13 mol/L
Procedure: Cellular dielectric spectroscopy (CDS) was conducted in an assay of dermal papilla cells (i.e., human hair dermal papilla cells, HHDPC) with bimatoprost and Cmpds IVc and IVb. As known in the art, CDS is a real-time, non-invasive, label-free, high-throughput, cell-based assay which measures electrical cell impedance. Without wishing to be bound by any theory, it is believed that GPCR activation induces changes in cell morphology, cell-cell interaction, and cell adherence which manifest as a change in cell impedance.

SMILES | change in food consumption and body weight gain (in words) [1] | Body Weight Gain (g) Mean ± SD [1] [g] | Food Consumption (g) Mean ± SD [1] [g] | hair cycle phase at day-42 [2] | skin penetration (cumulative amount in receptor solution) relative to bimatoprost [4] | penetration flux relative to bimatoprost [4] | Percentage Dose Applied, Receptor Chamber Solution, Prodrug [4] [Percentage Dose Applied] | Percentage Dose Applied, Upper ⅓ Dermis, Prodrug [4] [Percentage Dose Applied] | conversion to bimatoprost in the SC/Epi/Dermis layers [4] | amount of active agent in the upper third of the dermis relative to bimatoprost [4] | level in the systemic circulation [5] | stability in formulation [6] | potential for irritation of the human skin [7] | conversion to bimatoprost in the receptor chamber solution [8] | pharmacological efficacy relative to bimatoprost [9] | mutagenicity in microAmes screen [10] | change in cell impedance [11] | EC50 [11] | also measured
CCNC(=O)CCC/C=C\C[C@@H]1[C@@H](/C=C/[C@@H](O)CCc2ccccc2)[C@H](OC(=O)CC)C[C@@H]1O [Cmpd IIIb, 11-propionyl bimatoprost] | no significant change in food consumption or body weight gain | 10.0 ± 6.1 | 22.8 ± 1.36 | returned to the resting phase | significantly greater than for bimatoprost | greater than that for bimatoprost | 0.8 | 2.1 | converted to bimatoprost | less than observed for bimatoprost | most undetectable | stable in formulation | no indication of potential for irritation | observed to convert to bimatoprost | approximately equivalent efficacy | not mutagenic | – | – | dermal observation: signs of irritation ([1]; 3 mg/kg/day, days 2-4): minimal and transient signs of irritation; phase in which the majority of compound remains ([3]; artificial sebum / aqueous solution): remain in the aqueous phase; Ave. Ksebum (artificial sebum and water partition coefficient) ([3]; n = 4, 16 hr at 37° C.): 6.1
CCNC(=O)CCC/C=C\C[C@@H]1[C@@H](/C=C/[C@H](CCc2ccccc2)OC(=O)CC)[C@H](O)C[C@@H]1O [Cmpd IVb, 15-propionyl-bimatoprost] | decreases in both food consumption and body weight gain | 0.3 ± 6.7 | 19.19 ± 1.32 | returned to the resting phase | significantly greater than for bimatoprost | greater than that for bimatoprost | 2.1 | 1.9 | converted to bimatoprost | less than observed for bimatoprost | most undetectable | stable in formulation | no indication of potential for irritation | observed to convert to bimatoprost | approximately equivalent efficacy | not mutagenic | not observed to provide a change in cell impedance | could not be determined | days for hair growth to commence (day of onset of hair growth) ([9]; 0.03%, topical QD 14 days, vehicle 50% propylene glycol, 30% ethanol, 20% water, FIG. 6A): 16 days; days for full hair growth to be achieved ([9]; 0.03%, topical QD 14 days, vehicle 50% propylene glycol, 30% ethanol, 20% water, FIG. 6B): 32 days; activity in the time required to regain full hair growth (ranking) ([9]; among compounds tested at 0.03%): best activity
CCCC(=O)O[C@H](/C=C/[C@@H]1[C@@H](C/C=C\CCCC(=O)NCC)[C@@H](O)C[C@H]1O)CCc1ccccc1 [Cmpd IVc, 15-butyryl bimatoprost] | – | – | – | – | – | – | – | – | – | – | – | – | – | – | – | – | not observed to provide a change in cell impedance | could not be determined | –
